We go through three compounds from ChEMBL document CHEMBL5053529 (J Med Chem, 2021).

Molecules are shown by their SMILES. In brackets after ≈: the same amount, converted by molar mass.

The nature of data set [1]: AUC (0 to infinity) in Sprague-Dawley rat at 6 mg/kg, po. In kind it is ADME, organism-based. Also noted: time infinity, dose 6 mg/kg, route po. As to conditions: in vivo.
Data set [2] in a line: Cmax in Sprague-Dawley rat at 6 mg/kg, po. Type of data set: ADME, organism-based. Details: dose 6 mg/kg, route po. As to conditions: in vivo.
The nature of data set [3]: Hepatic clearance in Sprague-Dawley rat at 6 mg/kg, po. Type of data set: ADME, organism-based. As to conditions: in vivo.
A short description of data set [4]: Volume of distribution in steady state in Sprague-Dawley rat at 6 mg/kg, po. In kind it is ADME, organism-based. The note with it: in vivo.
Data set [5] in a line: Half life in Sprague-Dawley rat at 6 mg/kg, po. In kind it is ADME, organism-based. As to conditions: in vivo.
Data set [6] in a line: Clearance in human liver microsomes incubated up to 80 mins by LC-MS/MS analysis. The note with it: 1.333 h. Type of data set: ADME, Microsome.
Data set [7] can be described thus: Clearance in rat liver microsomes incubated up to 80 mins by LC-MS/MS analysis. In kind it is ADME, Microsome. As to conditions: 1.333 h. (Microsomes from liver hold many membrane-bound enzymes, among them those of drug oxidation.)
The nature of data set [8]: Clearance in mouse liver microsomes incubated up to 80 mins by LC-MS/MS analysis. In kind it is ADME, Microsome. The note with it: 1.333 h.
The nature of data set [9]: AUC (0 to infinity) in C57BL/6 mouse at 6 mg/kg, po. In kind it is ADME, organism-based. Details: time infinity, dose 6 mg/kg, route po. The note with it: in vivo.
Data set [10] is described as follows: AUC (0 to infinity) in Beagle dog at 0.3 mg/kg, po. In kind it is ADME, organism-based, Canis lupus familiaris. Also noted: time infinity, dose 0.3 mg/kg, route po. As to conditions: in vivo.
Data set [11] in a line: Cmax in C57BL/6 mouse at 6 mg/kg, po. In kind it is ADME, organism-based. Also noted: dose 6 mg/kg, route po. As to conditions: in vivo.
Data set [12] in a line: Cmax in Beagle dog at 0.3 mg/kg, po. In kind it is ADME, organism-based, Canis lupus familiaris. Details: dose 0.3 mg/kg, route po. The note with it: in vivo.
A short description of data set [13]: Oral bioavailability in Sprague-Dawley rat at 6 mg/kg. As to conditions: in vivo. Type of data set: ADME, organism-based.
Data set [14] in a line: Oral bioavailability in C57BL/6 mouse at 6 mg/kg. As to conditions: in vivo. Type of data set: ADME, organism-based.
Data set [15] in a line: Oral bioavailability in Beagle dog at 0.3 mg/kg. In kind it is ADME, organism-based, Canis lupus familiaris. The note with it: in vivo.
Data set [16] is described as follows: Hepatic clearance in Beagle dog at 0.3 mg/kg, po. In kind it is ADME, organism-based, Canis lupus familiaris. The note with it: in vivo.
Data set [17] in a line: Clearance in Beagle dog at 6 mg/kg, po. In kind it is ADME, organism-based, Canis lupus familiaris. The note with it: in vivo.
Data set [18] is described as follows: Volume of distribution in steady state in C57BL/6 mouse at 6 mg/kg, po. Type of data set: ADME, organism-based. As to conditions: in vivo.
Data set [19] can be described thus: Volume of distribution in steady state in Beagle dog at 0.3 mg/kg, po. In kind it is ADME, organism-based, Canis lupus familiaris. As to conditions: in vivo.
Data set [20] is described as follows: Half life in C57BL/6 mouse at 6 mg/kg, po. As to conditions: in vivo. Type of data set: ADME, organism-based.
Data set [21] can be described thus: Half life in Beagle dog at 0.3 mg/kg, po. Type of data set: ADME, organism-based, Canis lupus familiaris. As to conditions: in vivo.
Data set [22] in a line: Kinetic solubility of the compound at pH 7.4. Type of data set: physicochemical. The note with it: buffer, read-out: Kinetic_solubility.
Data set [23] is described as follows: Thermodynamic solubility of the compound at pH 1. The note with it: buffer, read-out: Therm_solubility. In kind it is physicochemical.
Data set [24] is described as follows: Thermodynamic solubility of the compound at pH 6.8. Type of data set: physicochemical. The note with it: buffer, read-out: Therm_solubility.
Data set [25] is described as follows: Octanol/water partition coefficient, log P of the compound. Type of data set: physicochemical.
The nature of data set [26]: Solubility of the compound at pH 6.8. Type of data set: physicochemical. The note with it: buffer.
Data set [27] is described as follows: Drug concentration in Sprague-Dawley rat blood at 3 umol/kg, po measured after 4 hrs by LC-MS/MS analysis. Type of data set: ADME, organism-based. The note with it: dose 3 µmol/kg, read-out: Drug uptake.
Data set [28] can be described thus: Drug concentration in Sprague-Dawley rat blood at 10 umol/kg, po measured after 4 hrs by LC-MS/MS analysis. As to conditions: dose 10 µmol/kg, read-out: Drug uptake. In kind it is ADME, organism-based.
The nature of data set [29]: Drug concentration in Sprague-Dawley rat blood at 100 umol/kg, po measured after 4 hrs by LC-MS/MS analysis. The note with it: dose 100 µmol/kg, read-out: Drug uptake. In kind it is ADME, organism-based.
The nature of data set [30]: Drug concentration in Sprague-Dawley rat blood at 30 umol/kg, po measured after 4 hrs by LC-MS/MS analysis. In kind it is ADME, organism-based. The note with it: dose 30 µmol/kg, read-out: Drug uptake.
Data set [31] in a line: Drug concentration in Sprague-Dawley rat brain at 3 umol/kg, po measured after 4 hrs by LC-MS/MS analysis. In kind it is ADME, organism-based. The note with it: dose 3 µmol/kg, read-out: Drug uptake.
The nature of data set [32]: Drug concentration in Sprague-Dawley rat brain at 10 umol/kg, po measured after 4 hrs by LC-MS/MS analysis. In kind it is ADME, organism-based. The note with it: dose 10 µmol/kg, read-out: Drug uptake.
Data set [33] in a line: Drug concentration in Sprague-Dawley rat brain at 100 umol/kg, po measured after 4 hrs by LC-MS/MS analysis. As to conditions: dose 100 µmol/kg, read-out: Drug uptake. In kind it is ADME, organism-based.
Data set [34] can be described thus: Drug concentration in Sprague-Dawley rat brain at 30 umol/kg, po measured after 4 hrs by LC-MS/MS analysis. The note with it: dose 30 µmol/kg, read-out: Drug uptake. Type of data set: ADME, organism-based.
A short description of data set [35]: Unbound drug concentration in Sprague-Dawley rat brain at 3 umol/kg, po measured after 4 hrs by LC-MS/MS analysis. The note with it: in vivo, dose 3 µmol/kg. Type of data set: ADME, organism-based.
Data set [36] is described as follows: Unbound drug concentration in Sprague-Dawley rat brain at 10 umol/kg, po measured after 4 hrs by LC-MS/MS analysis. In kind it is ADME, organism-based. As to conditions: in vivo, dose 10 µmol/kg.
Data set [37] in a line: Unbound drug concentration in Sprague-Dawley rat brain at 100 umol/kg, po measured after 4 hrs by LC-MS/MS analysis. Type of data set: ADME, organism-based. The note with it: in vivo, dose 100 µmol/kg.
Data set [38] can be described thus: Unbound drug concentration in Sprague-Dawley rat brain at 30 umol/kg, po measured after 4 hrs by LC-MS/MS analysis. In kind it is ADME, organism-based. As to conditions: in vivo, dose 30 µmol/kg.

Consider `Cc1cc(C#N)cnc1C(=O)Nc1ccc(F)c([C@]2(C)CO[C@@](C)(C(F)(F)F)C(N)=N2)c1`, for which, in data set [1], the AUC worked out at 0.973 µM·h. Also, the highest concentration (Cmax) in [2] was found to be 128 nM. The compound further showed a CLH in data set [3] of 17 mL/min/kg. Moreover, the Vdss in data set [4] came to 9 L/kg. For the same compound, the half-life in [5] was 4.9 h.
With `C[C@@]1(c2nc(NC(=O)c3ncc(C(F)(F)F)cc3Cl)ccc2F)CO[C@@](C)(C(F)(F)F)C(N)=N1`, the CLH is 26 µL/min/mg in data set [6]; 37 µL/min/mg in [7]; 32 µL/min/mg in [8]; 37 mL/min/kg in data set [3]; 3.3 mL/min/kg in data set [16]. Further, the AUC in [1] was 2.045 µM·h; in [9], 1.16 µM·h. The compound also came in with an AUC(0-inf) in data set [10] of 7.75 µM·h. Moreover, the Cmax in [2] was 146 nM; in data set [11] it was 82 nM; in data set [12] it was 257 nM. Further, the results for the bioavailability in data set [13], in data set [14] and in [15] were 60%, 48% and 57%, respectively. Moreover, the CL/F in data set [17] worked out at 2 mL/min/kg. In addition, the Vdss came to 6.9 L/kg in data set [4], 6.9 L/kg in data set [18] and 3.9 L/kg in [19]. Moreover, the half-life was 13.3 h in [5], 9.5 h in data set [20] and 23.4 h in data set [21]. In data set [22], the solubility kinetic came to 15 µg/mL (≈ 29.2 µM). For the same compound, the solubility thermodynamic in data set [23] was over 1500 µg/mL; in data set [24] it was 23 µg/mL (≈ 44.8 µM). Further, in [25], the logP is 4.3. Moreover, the solubility in data set [26] was determined as 13 µg/mL (≈ 25.3 µM). In addition, the concentration at 4 h came out at 160 nM in data set [27]; 440 nM in [28]; 3430 nM in data set [29]; 1710 nM in data set [30]; 180 nM in data set [31]; 850 nM in [32]. Further, the concentration at 4 h in [33] amounted to 3600 nM; in data set [34], 3280 nM. The “Drug uptake(free)” value in [35] was found to be 0.002 µM; in data set [36] it was 0.008 µM; in [37], 0.03 µM; in data set [38], 0.12 µM.
As for `COCCOc1cnc(C(=O)Nc2ccc(F)c([C@]3(C)CO[C@@](C)(C(F)(F)F)C(N)=N3)n2)c(N)n1`, the CLH in data set [7] was determined as 204 µL/min/mg; in data set [8] it was 866 µL/min/mg.

What is called AUC is concentration integrated over time. The low end stands for low exposure, the high end for high exposure. For orientation: Cmax means the peak of the concentration-time curve. Usually half-life stands for the time in which the quantity being followed falls by half. Low readings indicate fast loss, high ones slow loss. In general, AUC(0-inf) refers to the area under the concentration-time curve extrapolated to infinity. A lower AUC(0-inf) goes with low exposure. As a reminder, the bioavailability is dose-corrected exposure relative to a reference, in per cent. As usually defined, the CL/F is clearance divided by bioavailability, as obtained after extravascular dosing. In general, logP refers to the decadic logarithm of the partition coefficient of the neutral form, usually between octanol and water. Broadly, the solubility is the concentration that dissolves in the medium under given conditions.
